In brackets after ≈: the same amount, converted by molar mass. Activity calls are given as the source filed them. How the calls were made is not given here. A value given as a limit tells only on which side of the number the result lay.

The subject of the first test is KB. Nature of the test: Cytotoxicity against human KB cells. The test is classed as functional. The conditions noted are these: read-out: ED50 (the source's name).
As for `O=c1c(O)c(-c2cc(O)c(O)c(O)c2)oc2cc(O)ccc12` [ROBINETIN], the EC50 came out at 25 µg/mL (≈ 82.7 µM).

`COc1ccc(C2(OC)Oc3cc(OC)ccc3C(=O)C2(O)O)cc1` (stereo not drawn): the EC50 amounted to 2.8 µg/mL (≈ 8.08 µM).

On to `Cc1ccc2oc(-c3ccccc3)c(Cl)c(=O)c2c1`, for which the EC50 was more than 100 µg/mL.

For `Cc1ccc(C(C)C)c(-c2oc3ccc(Cl)cc3c(=O)c2Cl)c1`, the EC50 was found to be 60 µg/mL (≈ 173 µM).

Turning to `C[C@@H]1O[C@@H](OC[C@H]2O[C@@H](Oc3c(-c4ccc(O)c(O)c4)oc4cc(O)cc(O)c4c3=O)[C@H](O)[C@@H](O)[C@@H]2O)[C@H](O)[C@H](O)[C@H]1O.Cl`, the EC50 was more than 100 µg/mL.

With `O=c1cc(-c2ccc(O)c(O)c2)oc2c([C@@H]3O[C@H](CO)[C@@H](O)[C@H](O)[C@H]3O)c(O)cc(O)c12` [ORIENTIN], the EC50 worked out at 25 µg/mL (≈ 55.8 µM).

Regarding `C[C@@H]1O[C@@H](OC[C@H]2O[C@@H](Oc3c(-c4ccc(O)c(O)c4)oc4cc(O)cc(O)c4c3=O)[C@H](O)[C@@H](O)[C@@H]2O)[C@H](O)[C@H](O)[C@H]1O` [RUTIN], the EC50 was found to be 26 µg/mL (≈ 42.6 µM).

As for `COc1cc2c(=O)cc(-c3ccc(O)c(O)c3)oc2cc1O`, the EC50 was 18 µg/mL (≈ 59.9 µM).

`COc1cc(O)c2c(c1)OC(c1ccc(O)cc1)CC2=O` (stereo not drawn): the EC50 turned out to be 13 µg/mL (≈ 45.4 µM).

With `COc1ccc2c(=O)c(O)c(-c3ccccc3)oc2c1`, the EC50 stood at 26 µg/mL (≈ 96.9 µM).

`O=c1c(Cl)c(-c2ccccc2)oc2ccc(Cl)cc12`: the EC50 was more than 100 µg/mL.

Regarding `COc1ccc2c(c1)OC(OC)(c1ccccc1)C(O)(O)C2=O` (stereo not drawn), the EC50 turned out to be 20 µg/mL (≈ 63.2 µM).

Turning to `COc1ccc(-c2oc3cc(O)cc(O)c3c(=O)c2O)cc1` [KAEMPFERIDE], the EC50 worked out at 20 µg/mL (≈ 66.6 µM).

In the case of `COc1c(OC)c(OC)c2c(=O)cc(-c3ccc(OC(C)C)cc3)oc2c1OC`, the EC50 is more than 100 µg/mL.

Turning to `O=c1c(Cl)c(-c2ccccc2O)oc2ccccc12`, the EC50 is 22 µg/mL (≈ 80.7 µM).

For the compound `COc1cc2c(=O)cc(-c3ccc(OC)c(OC)c3)oc2cc1O`, the EC50 turned out to be 45 µg/mL (≈ 137 µM).

On to `COC1(c2ccccc2)Oc2ccccc2C(=O)C1(O)O` (stereo not drawn), for which the EC50 is 19 µg/mL (≈ 66.4 µM).

In the case of `O=c1cc(-c2ccccc2)oc2cc(F)ccc12` [7-FLUOROFLAVONE], the EC50 is 22 µg/mL (≈ 91.6 µM).

`COc1cc(OC)c2c(=O)c(OC)c(-c3ccc(OC)c(OC)c3)oc2c1`: the EC50 amounted to 25 µg/mL (≈ 67.1 µM).

As for `Cc1ccc(-c2oc3ccc(Cl)cc3c(=O)c2Cl)c(C(C)C)c1`, the EC50 was determined as 22 µg/mL (≈ 63.4 µM).

As for `COc1cc(O)c2c(=O)cc(-c3ccc(OC)c(O)c3)oc2c1`, the EC50 came out at 19 µg/mL (≈ 60.5 µM).

With `O=c1c(O)c(-c2ccccc2)oc2cc(O)cc(O)c12` [GALANGIN], the EC50 is more than 100 µg/mL.

For `COc1ccc(-c2oc3cc(O)c(O)c(O)c3c(=O)c2O)cc1OC`, the EC50 was found to be 27 µg/mL (≈ 78 µM).

For `COc1c(O)cc2oc(-c3ccc(O)cc3)cc(=O)c2c1O` [HISPIDULIN], the EC50 turned out to be 22 µg/mL (≈ 73.3 µM).

As to `O=c1c(O)c(-c2ccc(O)c(O)c2)oc2cc(O[C@@H]3O[C@H](CO)[C@@H](O)[C@H](O)[C@H]3O)cc(O)c12` [QUERCIMERITRIN], the EC50 is 28 µg/mL (≈ 60.3 µM).

Another test deals with L1210. Nature of the test: In vivo antitumor activity against mouse L1210 cells.
Conditions: not given
The format is functional, organism-based.
For `COc1ccc(-c2coc3cc(O)ccc3c2=O)cc1`, the outcome was inactive.

For `COc1ccc(-c2oc3ccccc3c(=O)c2O)cc1OC`, the result was inactive.

Take `O=c1c(-c2ccccc2)coc2ccccc12`: the result was inactive.

Consider `Cc1ccc(-c2oc3ccccc3c(=O)c2O)cc1`, for which the result was inactive.

Consider `CC(=O)c1c(O)cc(O)cc1-c1cc(=O)c2c(O)ccc(C(C)=O)c2o1`, for which the outcome was inactive.

As to `COc1cc(-c2cc(=O)c3c(C)cc(O)cc3o2)cc(OC)c1OC`, the result was inactive.

`COc1cc(-c2cc(=O)c3c(O)cc(O)cc3o2)cc(OC)c1OC`: the result was inactive.

With `COc1ccc(C2(OC)Oc3ccccc3C(=O)C2(O)OC)cc1OC` (stereo not drawn), the outcome was inactive.

With `COc1cc(-c2cc(=O)c3ccc(O)cc3o2)cc(OC)c1OC`, the outcome was inactive.

With `COc1ccc(-c2oc3ccccc3c(=O)c2O)cc1`, the result was inactive.

For `COc1ccc(-c2cc(=O)c3c(C)cc(O)cc3o2)cc1OC`, the outcome was inactive.

Consider `COc1ccc(-c2oc3cc(CC=C(C)C)cc(O)c3c(=O)c2OC)cc1OC`, for which the result was inactive.

On to `COc1ccc2c(c1)OC(OC)(c1ccc(OC)c(OC)c1)C(O)(OC)C2=O` (stereo not drawn), for which the outcome was inactive.

For the compound `CC(=O)Oc1ccc2c(=O)c(-c3ccccc3)c(C)oc2c1`, the result was inactive.

As for `COC1(O)C(=O)c2ccccc2OC1(OC)c1ccc(Cl)cc1` (stereo not drawn), the result was inactive.

As for `COc1ccc(-c2coc3cc(O)cc(O)c3c2=O)cc1`, the result was inactive.

Regarding `COc1cc(-c2cc(=O)c3c(O)cc(C)cc3o2)cc(OC)c1OC`, the result was inactive.

On to `COc1ccc(-c2cc(=O)c3ccc(O)cc3o2)cc1`, for which the result was inactive.

As to `COc1ccc(-c2oc3cc(O)cc(O)c3c(=O)c2OC)cc1OC`, the result was inactive.

Regarding `COc1cc(O)c2c(=O)c(OC)c(-c3ccc(O)c(OC)c3)oc2c1`, the outcome was inactive.

For the compound `COc1ccc(-c2cc(=O)c3c(O)cc(C)cc3o2)cc1OC`, the outcome was inactive.

With `O=C1C(=O)C(c2ccccc2)Oc2ccccc21` (stereo not drawn), the outcome was inactive.

For the compound `C[C@@H]1O[C@@H](OC[C@H]2O[C@@H](Oc3c(-c4ccc(O)c(O)c4)oc4c(O)cc(O)cc4c3=O)[C@H](O)[C@@H](O)[C@@H]2O)[C@H](O)[C@H](O)[C@H]1O`, the result was inactive.

For the compound `COc1ccc(-c2cc(=O)c3ccc(O)cc3o2)cc1OC`, the result was inactive.

With `COc1ccc2c(=O)c(O)c(-c3ccc(OC)c(OC)c3)oc2c1`, the outcome was inactive.

Regarding `CC(=O)Oc1cc(OC(C)=O)c2c(=O)c(OC(C)=O)c(-c3ccc(OC(C)=O)c(OC(C)=O)c3)oc2c1`, the result was inactive.

Consider `O=c1cc(-c2ccc3c(c2)OCO3)oc2ccccc12`, for which the outcome was inactive.

As to `COc1cc(OC)c(-c2cc(=O)c3c(O)cc(O)cc3o2)c(OC)c1`, the result was inactive.

Turning to `COc1cc2oc(-c3ccc(O)cc3)c(O[C@@H]3O[C@@H](C)[C@H](O)[C@@H](O)[C@H]3O)c(=O)c2c(O)c1OC`, the result was inactive.

As for `COc1ccc(-c2cc(=O)c3c(O)cc(O)cc3o2)cc1OC`, the outcome was inactive.

As to `O=c1cc(-c2ccccc2)oc2c(O)c(O)cc(O)c12`, the result was inactive.

In the case of `COc1cc(C2Oc3cc(OC)c(OC)c(O)c3C(=O)C2OC)ccc1O` (stereo not drawn), the outcome was inactive.

Consider `COc1ccc(-c2cc(=O)c3c(O)cccc3o2)cc1`, for which the outcome was inactive.

Regarding `C[C@@H]1O[C@@H](OC[C@H]2O[C@@H](Oc3ccc4c(=O)c(-c5ccc6c(c5)OCO6)coc4c3)[C@H](O)[C@@H](O)[C@@H]2O)[C@H](O)[C@@H](O)[C@H]1O`, the outcome was inactive.

Turning to `COC1(c2ccccc2)Oc2ccccc2C(=O)C1(O)C[N+](=O)[O-]` (stereo not drawn), the result was inactive.

For the compound `COc1cc(-c2cc(=O)c3ccc(O)c([C@@H]4O[C@H](CO)[C@@H](O)[C@H](O)[C@H]4O)c3o2)ccc1O`, the result was inactive.

Take `COc1cc(OC)c2c(=O)c(O)c(-c3ccc(OC)c(OC)c3)oc2c1`: the result was inactive.

Take `COc1ccc(-c2cc(=O)c3c(C)cc(O)cc3o2)cc1`: the result was inactive.

Source of the values: ChEMBL document CHEMBL1151292, “Antineoplastic activity and cytotoxicity of flavones, isoflavones, and flavanones” (1979).
